This is an account of results in patent publication US11191293B2, “Nutritional composition and infant formula for promoting myelination of the brain” (NESTEC S.A., priority 2015, dated 2021).

Experiment [1] has as its system neural progenitor cell (NPCs). The experiment in a line: Neurosphere counts in 96-well plates. The experiment is classed as cell-based, mouse. To be noted: cells grown for 2 days. Here is the method: Generation of neural progenitor cell (NPCs) libraries:
dissociation of E14 mouse neocortex
E14 pup brains were harvested and placed in ice cold DPBS(1X)+10% Pen/Strep, then they were dissected using a dissecting microscope. From each pup, one brain hemisphere was placed in 2 ml of Neurobasal media/10% P/S/10X Hepes and another brain hemisphere was placed in another tube.
The tissue from each tube was aseptically and manually dissociate into single cells, neurobasal complete medium was added and centrifuged at 130G for 5 min. The tissue was then re-suspended in neurobasal complete media with GF and placed in a corning suspension culture dish 100 mm×20 mm (#430591). Cells were passage twice using a 1:3 ratio, after what they were centrifuged (130 g 5 min), resuspended in freezing media (10% DMSO and neurobasal complete media, no GF) and frozen in liquid nitrogen (LN2).
Corning Costar 3474, 96 well plate, Ultra low attachment
3-4 mLs of cells were taken out of the tilted plate and add to a 15 ml conical. Some of the remaining media was used to rinse down the plate. All remaining media was drawn up and put into a 15 ml conical tube, and Spun at 130 G for 5 min. All media was removed. The cells were gently resuspended in 5 mls of warm PBS, spun again. PBS was then removed and the cells were then gently resuspended in 500 μl of Accutase(Corning™ Accutase™ Cell Detachment Solution, #25058Cl). The cells were then Pipetted gently with a 1000 μl tip to break up pellet, and then they were placed in a shaking water bath for 5-10 minutes, after which time they were swirled by hand frequently.
Control and compound media was made with #2 media and contain 29 uM Choline, low (5 uM) and medium (70 uM) choline media was made with #3 media.
Clumps were no bigger than ˜3-5 cells. 5-10 mls of warm media (GF) was added to dilute enzyme. 2 mls of media was added. […]
in AB staining solution for five min. Imaging was carried out using a GE Cytell imager or LSM 710, Zeiss confocal microscope and the diameters of neurospheres with ImageJ software (National Institutes of Health) was analysed.

The test system of experiment [2] is neural progenitor cell (NPCs). The experiment in a line: Monolayer culture NPC proliferation assay. The experiment is classed as cell-based, mouse. To be noted: 3 days culture. Here is the method:
24 well glass bottom plates (Mat Tek P24G-1.0-13-F Case, glass bottom 24 well plates) were coated with poly-L-ornithin (Sigma P4957) and Fibronection (Sigma F1141) before use in the assay below.
Cells were plated (10,000 cells per well) in Complete media with GF for 24 hours (500 ul per well). Once cells had been attached they were switched to choline deficient media, other compound media, or appropriate media.
After 24 h, it was ensured that cells had attached to the plate then the medium was carefully removed. 500 μL of compound media plus GF.was added. The cells were cultured for 3 days in appropriate media.
Control and compound media was made with #2 media and contains 29 uM Choline, Low (5 uM) and medium (70 uM) choline media was made with #3 media.
EDU incorporation was measured using Click-iT® EdU Alexa Fluor® 555 Imaging Kit (Life technologies, #c10338).
At the end of day 3 EdU was added to each well at 10 μM for 30 minutes prior to fixation. For fixation and subsequent immunohistochemical analysis, the medium was removed, the cells were rinsed once with 1X PBS for 5 min, and fixed with 4% PFA in 1X PBS for 15 min at 4° C., then the cells were washed twice with 1X PBS for 5 min, left in 1X PBS, wrapped in foil and leave overnight at 4° C., or staining was proceeded with.
PBS was removed and enough AB staining solution (1% Goat
serum, 1xPBS, and 0.1% triton X) added to cover the bottom, the blockwas kept at room temp for 1 hour. The cells were stained for EDU. The cells were Incubated for 30 min at room temp, in the dark. The cells were washed with 1X PBS and stained with Dapi 1:5000 ul for 15 min. The cells were washed once with 1X PBS, then left in PBS at 4° C., or Imaged immediately using a GE Cytell imager (cell viability
application), or LSM 710, Zeiss confocal microscope (with ImageJ software (National Institutes of Health) analysis).

The subject of experiment [3] is brain myelination (myelin water fraction). Nature of the experiment: Cross-sectional correlation of infant formula nutrient content with brain myelination (mcDESPOT MRI myelin water fraction). The experiment is classed as in vivo, human. The following applies: formula-fed children up to 5 years of age; brain regions named per nutrient. Here is the method:
MRI (Magnetic Resonance Imaging): MRI brain scans of infants and children between 0 and 5 years were acquired using a white matter imaging technique. This technique provides a quantitative measure, the Myelin Water Fraction (MWF), which is a surrogate marker of myelin content in the brain. When mapped as a function of time across early childhood, myelination trajectories can be generated.
Infant formula composition: six infant formulas fed to infants participating in a study were analyzed for their composition/level of myelin-relevant nutrients.
Infants included in this study were drawn from a larger longitudinal study of normal brain and behavioral development: the Brown University Assessment of Myelination and Behavior Across Maturation (BAMBAM). To focus on neurotypical development, children with known potential risk factors for learning, neurologic, or psychiatric disorders were specifically excluded during recruitment and enrollment. Thus, children with in utero alcohol or illicit substance exposure, premature (<37 weeks gestation) or multiple birth, fetal ultrasound abnormalities, complicated pregnancy (e.g., preeclampsia), APGAR scores <8, NICU admission, neurological disorder (e.g., head injury, epilepsy), psychiatric or developmental disorders in the infant, parents or siblings (including maternal depression requiring medication) were excluded. Ongoing screenings, such as the MCAT for autism, or CBCL for behavioral problems, were further used to remove enrolled children with clinically concerning behaviors or overt medical conditions (such as autism spectrum disorders).
A combination of retrospective and prospective data were acquired from parents via detailed medical histories and parental interview on the type of infant formula used, percentage of breastfeeding to formula feeding, and length of exclusive breastfeeding. This information was updated at each study visit, which occurred approximately every 6 months for children under 2 years, and yearly for older children. Using this information, children were categorized into one of 2 groups: #1. Exclusively formula-fed; and #2. Exclusively breastfed for at least 90 days (3 months). Children who were fed a combination of breastmilk and formula within 3 months were excluded from our analysis. Infants within the exclusively formula-fed group were further sub-divided based on parental reports of the main infant formula used throughout the first 3 months. Main formula was defined as that given 90% of the time or more (in the case were parents used an alternate brand during vacation, for example).
Using these criteria, 94 exclusively formula-fed infants and young children were selected into group #1. These included 13 children who received formula #2; 28 who received formula #5; 8 who received formula #3; 39 who received formula #4; 5 who received formula #1 and 1 who received formula #6. A sample of 52 exclusively breast-fed infants were also selected and matched to the over formula-fed group with regards to mean age, gestation duration, birth weight, male:female ratio, ethnicity ratio, maternal education, family size, and number of languages spoken in the home (in addition to English).
Each infant was scanned using the mcDESPOT (multicomponent Driven Equilibrium Single Pulse Observation of T1 and T2) white matter imaging technique Deoni et al. (Magn. Reson. Med. 2008, 60:1372-1387), which provides a quantitative measure of the myelin water fraction (MWF)—a measure of myelin content—at each point throughout the brain. All infants were scanned during natural (i.e. non-sedated) sleep using acoustically-muffled mcDESPOT imaging protocols. Total imaging times ranged from 19 minutes for the youngest toddlers to 24 minutes for the older 4 year-old children.

As for Sphingomyelin, the “number of neurospheres, Average (Mean)” value in experiment [1] (Sphingomyelin High (Dose 3, 1 μm)) is on record as 219; in experiment [1] (Sphingomyelin Low (Dose 1, 10 nM)), 94; in experiment [1] (Sphingomyelin Med (Dose 2, 100 nM)) it was 121. For the same substance, the “neuronal proliferation, DAPI” value in experiment [2] (Sphingomyelin high (Dose 3, 1 μm)) is listed as 305; in experiment [2] (Sphingomyelin low (Dose 1, 10 nM)) it was 280; in experiment [2] (Sphingomyelin med (Dose 2, 100 nM)), 314. For the same substance, the “association of nutrient content of infant formula with myelination (myelin water fraction) over time in the brain” value in experiment [3] is “an association with myelination (myelin water fraction) was observed”.
